Patent US20110250292A1, “COMPOSITION FOR IMPROVING RA[…] CANCER” (CHONJISAN CO., LTD., priority 2008, published 2011)

Legend:
[1] = system: human nasopharyngeal squamous cell carcinoma (FaDu); experiment: Fractional irradiation and tetra-arsenic oxide treatment on Balb/c nu/nu mouse having human nasopharyngeal squamous cell carcinoma (tumor volume); assay type: in vivo; settings: 8 mg/kg through abdominal cavity; fractional irradiation 12 Gy 4 times per week for 4 weeks; FIG. 3
Experimental: (§1) Balb/c, and Balb/c, nu/nu female mice (weight: 20 to 25 g, age: 6 to 8 weeks) were obtained from Orient bio (Taejun, Korea), and WEHI164 tumor cell line (derived from Meth-A-induced fibrosarcoma) and FaDu tumor cell line (derived from human nasopharyngeal squamous cell carcinoma) were bought from KCCB (Seoul, Korea). WEHI164 cells (5×10^5) or FaDu cells (1×10^6) in MEM 50 μl were hypodermically injected into a rear leg of a Balb/c or Balb/c nu/nu mouse, and then the growth of a tumor was observed.
(§2) Tetra-arsenic oxide obtained from Genew Science (Seoul, Korea) was placed in distilled water, and continuously stilled and dissolved. The resultant liquid was stored as a stock liquid at 4° C. The stock liquid was diluted with a phosphoric acid buffer solution in such a manner as to have a final concentration of 0.5 mg/ml.
(§3) In order to minimize acute arsenic toxicity, dextrose was added with a final concentration of 5% (F. X. Reichl, H. Kreppel, L. Szinicz, B. Fichtl, and W. Forth, Reduction of arsenic trioxide toxicity in mice by repeated treatment with glucose. Arch Toxicol Suppl 14 (1991) 225-7). […]
(§4) A tumor volume was measured twice to three times per week. The tumor size was measured by calipers, and the tumor volume was calculated by a×b×h/2 (a=minimum length, b=maximum length, h=height). […]

[2] = system: Meth-A tumor (WEHI164 fibrosarcoma); experiment: Irradiation and tetra-arsenic oxide treatment on Balb/c mouse having Meth-A tumor (tumor volume); assay type: in vivo; settings: 8 mg/kg once into abdominal cavity 1 hour after single local irradiation; 6 mice; FIG. 1; *p<0.05
Experimental: as §1, §2
In order to minimize acute arsenic toxicity, dextrose was added with a final concentration of 5% (F. X. Reichl, H. Kreppel, L. Szinicz, B. Fichtl, and W. Forth, Reduction of arsenic trioxide toxicity in mice by repeated treatment with glucose. Arch Toxicol Suppl 14 (1991) 225-7).
In irradiation, a cobalt-60 unit (Theratron 780; AECL, Kanata, Ontarino, Canada) was used. […]
A change in the tumor size was measured by calipers twice to three times per week. A tumor volume was calculated by a×b×h/2 (a=minimum length, b=maximum length, h=height). […]

[3] = system: human nasopharyngeal squamous cell carcinoma (FaDu); experiment: Single irradiation and tetra-arsenic oxide treatment on Balb/c nu/nu mouse having human nasopharyngeal squamous cell carcinoma (tumor volume); assay type: in vivo; settings: FIGS. 2 and 3
Experimental: as §1, §2, §3, §4

[4] = M. J. Park et al., Int. J. Oncol. 22, 2003; cited from earlier work
[5] = oral dosage form; Z. X. Shen et al., Blood 89 (1997); cited from earlier work

Row | Molecule | radiosensitizer effect on tumor volume with fractional irradiation [1] | growth of tumor (tumor volume), combination with irradiation compared to irradiation alone [2] | tumor growth inhibition, separate treatment of tetra-arsenic oxide compared to control group ([3]; 8 mg/kg once through abdominal cavity, no irradiation) | tumor growth, combination with irradiation compared to irradiation alone ([3]; 8 mg/kg through abdominal cavity plus local irradiation) | toxicity on oral administration [4] | gastrointestinal toxicity on oral administration [5]
1 | O1[As]2O[As]3O[As]1O[As](O2)O3 [tetra-arsenic oxide, 2,4,6,8,9,10-Hexaoxa-1,3,5,7-tetraarsatricyclo [3.3.1.1^3,7]decane] | significant effect as a radiosensitizer | significantly reduced the growth of tumor | hardly has an effect on tumor growth inhibition | significantly reducing tumor growth | very low toxicity | –
2 | arsenic trioxide | – | – | – | – | – | serious gastrointestinal toxicity
